# Source: patent publication US20230381139A1, “METHODS OF TREATING AND/OR PREVENTING ALZHEIMER’S DISEASE WITH R-CARVEDILOL” (priority 2020, published 2023)
# Legend:
# [1] = system: hippocampal CA3-CA1 pathway of 3×TG+/− mice; assay: Long-term potentiation recording in hippocampal slices from treated 3×TG+/− mice; assay type: in vivo, mouse; settings: brain slices from 12-15 months old 3×TG+/− mice, 3.2 mg/kg/day for one month; vs DMSO
# Experimental: Schaffer collateral fibers were stimulated at the CA3 subfield to record field excitatory postsynaptic potentials (fEPSPs) in the CA1 stratum radiatum of transverse hippocampal slices ([…]) from all genotypes and drug-treated mice at different ages. After recovering at room temperature for 1 h (or 2 h for brain slices from drug-treated mice), hippocampal slices were allowed to recover in the recording chamber for additional 10 min. To evaluate basal synaptic transmission, different stimulation strengths (0 μA to 200 μA in steps of 20 μA) were applied and plotted fEPSP slopes versus the current input to compare the slope of input/output (I/O) curves of fEPSP. In the experiments that followed, stimulus current was adjusted so that fEPSP stabilized at 40-50% of maximum. Baseline was recorded for at least […] until the differences among fEPSP slopes were within 10%. Long-term potentiation (LTP) was induced using a tetanic high-frequency stimulation (HFS; 4 trains of 100 pulses at 100 Hz, with 20-sec intervals). Synaptic responses were recorded for at least 60 min after tetanization and quantified as the slope of the evoked fEPSP as percentage of the baseline.
# Aβ = Aβ accumulation (immunohistochemical staining and immunoblotting) in 5×FAD+/− mice; assay type: in vivo, mouse; settings: 5×FAD+/− mice 3-4, 4-5 and 6-7 months old after 1-month treatment with 3.2 mg/kg/day; vs DMSO
# Experimental: Adult genetically engineered mice, 5×FAD^+/− (Oakley et al., 2006), RyR2-E4872Q^+/− (EQ^+/−) (Chen et al., 2014), 5×FAD^+/−/RyR2-E4872Q^+/− (5×FAD^+/−/EQ^+/−), and wildtype (WT) littermates of both sexes were used. R-carvedilol (R-CV) (at doses of 0.8, 1.6 or 3.2 mg/kg/day), racemic carvedilol (3.2 mg/kg/day), and vehicle control (DMSO) were delivered to 5×FAD^+/− mice in drinking water for one month, starting at different ages before (2-3 months old) or after (3-4 months old) the occurrence of AD pathologies (Oakley et al., 2006). To assess the effects of genetically and pharmacologically limiting RyR2 open time on the prevention and rescue of AD deficits in different stages (early, moderate, and late) of AD progression, animals at different ages (from 2-15 months) were used. As reported (Oakley et al., 2006), there was an age-dependence of AD progression in the 5×FAD^+/− mice. No sex-dependent differences in AD progression in these mice was observed. For 2-photon Ca^2+ imaging experiments, 5×FAD, RyR2 WT, and RyR2 mutant mice were cross-bred with the heterozygous Thy1-GCaMP6f transgenic mice (Chen et al., 2012; Chen et al., 2013) (GP5.17, JAX 025393) to express the GCaMP6f Ca^2+ sensing probe (driven by the Thy1 promotor) in hippocampal neurons in each of the genotypes used.
# Immunoblotting analysis was carried out using the method described previously (Rosen et al., 2010). […]
compound,measurement,setting,value
"COc1ccccc1OCCNC[C@@H](O)COc1cccc2[nH]c3ccccc3c12 [R-carvedilol, R-(+)-carvedilol]",hippocampal LTP (potentiation of fEPSP slope),[1],significantly enhanced
same,"Aβ accumulation (plaques, total Aβ and Aβ (1-42) levels)",Aβ,without affecting
